Source: patent publication US20250263396A1, “CRYSTALLINE FORMS OF 3-(5-(2-HYDROXY-2- METHYLPROPOXY)-6-METHYPYRAZIN-2-YL)-1H-INDOLE-7-CARBONITRILE” (NIDO BIOSCIENCES, INC., priority 2024, published 2025)
Entries after “also recorded” stand apart in the source; their conditions may differ.

How the values were obtained:
[1] = system: LNCaP cells expressing ARR2PB-FireflyLuc and CMV-RenillaLuc; assay: LNCaP ARR2PB-FireflyLuc reporter assay; format: cell-based; details: Homo sapiens, +/−0.5 nM DHT, 48 h at 37° C.
Description: LNCaP cells expressing ARR2PB-FireflyLuc and CMV-RenillaLuc were treated with indicated concentrations of the test compound, enzalutamide (negative control), or DHT (positive control)+/−0.5 nM DHT for 48 h at 37° C. […] signals were read with the ImageXpress Micro Confocal System. Remaining activity (antagonist mode) was calculated as % Remaining Activity=100×[(Readsample−LCave)/(HCave−LCave)] where HC is cells treated with 0.5 nM DHT only and LC is cells treated with 10 uM enzalutamide+0.5 nM DHT. Activation (agonist mode) was calculated as % Activation=100×[(ReadSample−LCave)/(HCave−LCave)] where HC is cells treated with 1 uM DHT and LC is cells treated with DMSO. Dose response curves and IC50 values were calculated using non-linear regression analysis in XLfit.

[2] = Competitive equilibration experiments; details: 2-MeTHF
Description: Relative stability of the anhydrate Forms A, C, H and J was investigated with competitive equilibration experiments.
Relative stability of the anhydrates Forms C, K and L was investigated with competitive equilibration experiments.
Relative stability of the anhydrates Form C and Form P was systematically investigated with competitive equilibration experiments.
About 5 mg of Form C and about 5 mg of Form P were added to 0.25 mL of saturated solutions of selected solvents. Obtained suspensions were stirred at 25° C., 50° C. and 70° C. for 4 days, respectively. Solid parts (wet cakes) were isolated by centrifugation filtration and investigated by XRPD.
About 10 mg of Form C and about 10 mg of Form P were added to 0.5 mL saturated solutions of selected solvents. Obtained suspensions were stirred at 80/C and 90 C, respectively. Solid parts (wet cakes) were be isolated by centrifugation filtration and investigated by XRPD.
About 3 mg of the Form P and 3 mg of the mixture of Form P and Form J were added to 0.2 mL of saturated solutions of selected solvents. Obtained suspensions were stirred at 25° C., 50° C. and 70° C. for 4 days, respectively. Solid parts (wet cakes) were isolated by centrifugation filtration and investigated by XRPD.
About 3 mg of Form P and 3 mg of the physical mixture of Form P and Form R were added to 0.2 mL of saturated solutions of 2-MeTHF. Obtained suspensions were stirred at 25° C., 50° C. and 70° C., respectively. Solid parts (wet cakes) were isolated by centrifugation filtration and investigated by XRPD.
About 1.5 mg of Form P, 1.5 mg of Form X and 1.5 mg Form Y were added to 0.15 mL saturated solution of 2-MeTHF. Obtained suspensions were stirred at 25° C., 50° C. and 70° C., respectively. Solid parts (wet cake) were isolated by centrifugation filtration and investigated by XRPD.

[3] = Equilibration with solvents; format: physicochemical
Description: Obtained suspensions were filtered through a 0.45 μm nylon membrane filter by centrifugation at 14,000 rpm. Solid parts (wet cakes) were investigated by XRPD. For samples with different XRPD patterns, additional analysis including DSC, TGA, ^1H-NMR were performed.
(§1) Obtained suspensions were filtered through a 0.45 μm nylon membrane filter by centrifugation at 14,000 rpm.
as §1

[4] = Exposure to humidity or ambient condition; format: physicochemical
[5] = Competitive water activity experiments; details: whole range of water activity (0≤a.w.≤1)
[6] = Wet granulation simulation experiments; format: physicochemical
Description: Water or ethanol was added drop wise to about 10 mg of Form P until the sample is wetted sufficiently. Wet sample was ground gently with in a mortar and a pestle. Post granulation sample was dried under ambient condition for 10 min.
Water or ethanol was added drop wise to about 10 mg of Form C until the sample is wetted sufficiently. Wet sample was ground gently with in a mortar and a pestle. Post granulation sample was dried under ambient condition for 5 min.

[7] = Form conversion kinetics from Form C to Form P; format: physicochemical
Description: To investigate form conversion kinetics from Form C to Form P, equilibration experiments with Form C in pH 1.2 HCl buffer, 2-MeTHF, heptane and water were conducted. In 2-MeTHF, Form C converted to Form P within 2 h at 25° C. In pH 1.2 HCl buffer, Form C converted to Form P after 31 h at 37° C. In heptane, Form C converted to Form P completely after 1 week at 25° C. In water, Form C converted to Form P completely after 4 days at 25° C.

[8] = Dry grinding simulation experiments; format: physicochemical; details: ground manually with mortar and pestle, 5 min
Description: About 10 mg of Form P was ground manually with a mortar and a pestle for 1, 3 and 5 minutes.
About 10 mg of Form C was ground manually with a mortar and a pestle for 5 minutes.

[9] = Form change on heating, dehydration or desolvation (TGA, DSC, variable temperature XRPD); format: physicochemical; details: DSC thermogram and VT-XRPD
Description: Relative stability of the anhydrates Form R and Form P was investigated by variable temperature XRPD and competitive equilibration experiments.
Relative stability of the anhydrates Form B, Form X, Form Y and Form C was investigated by variable temperature XRPD. Form B converted to Form X, Form Y and Form C after heating to 150° C., 176° C. and 180° C., respectively.

**Q.** For `Cc1nc(-c2c[nH]c3c(C#N)cccc23)cnc1OCC(C)(C)O` [3-(5-(2-hydroxy-2-methylpropoxy)-6-methylpyrazin-2-yl)-1H-indole-7-carbonitrile], which IC50 [1] is on record?
**A.** Its IC50 is 50 nM.

**Q.** And the “XRPD after competitive equilibration” value ([2]; 25° C. for 3 days)?
**A.** Its value is “Form P”.

**Q.** What about the “XRPD after competitive equilibration” value ([2]; 50° C. for 3 days) of the same compound?
**A.** Its value is “Form P”.

**Q.** And the “XRPD after competitive equilibration” value ([2]; 70° C. for 1 week)?
**A.** Its value is “Form P”.

**Q.** What about the “XRPD after competitive equilibration” value ([2]; 70° C. for 3 days) of the same compound?
**A.** The value was “Form P + one peak”.

**Q.** For `Cc1nc(-c2c[nH]c3c(C#N)cccc23)cnc1OCC(C)(C)O` [Amorphous form, 3-(5-(2-hydroxy-2-methylpropoxy)-6-methylpyrazin-2-yl)-1H-indole-7-carbonitrile], which XRPD after equilibration ([3]; 2-MeTHF, 25° C.) is on record?
**A.** Its XRPD after equilibration is “Form P”.

**Q.** And the XRPD after equilibration ([3]; 2-MeTHF/heptane (v:v = 1:1), 25° C.)?
**A.** The XRPD after equilibration was “Form P”.

**Q.** What about the XRPD after equilibration ([3]; 2-MeTHF/heptane (v:v = 3:1), 25° C.) of the same compound?
**A.** Its XRPD after equilibration is “Form P”.

**Q.** And the XRPD after equilibration ([3]; 2-Propanol, 25° C.)?
**A.** The XRPD after equilibration was “Form P”.

**Q.** And the XRPD after equilibration ([3]; Acetone, 25° C.)?
**A.** The XRPD after equilibration was “Form P”.

**Q.** What about the XRPD after equilibration ([3]; Acetone/water (v:v = 30:70) a.w. = 0.92, 25° C.) of the same compound?
**A.** The XRPD after equilibration was “Form P”.

**Q.** And the XRPD after equilibration ([3]; Acetonitrile, 25° C.)?
**A.** The XRPD after equilibration was “Form P”.

**Q.** What about the XRPD after equilibration ([3]; DMSO/water (v:v = 40:60) a.w. = 0.77, 25° C.) of the same compound?
**A.** Its XRPD after equilibration is “Form P”.

**Q.** What about the XRPD after equilibration ([3]; Ethanol, 25° C.) of the same compound?
**A.** The XRPD after equilibration was “Form P”.

**Q.** And the XRPD after equilibration ([3]; Ethanol/water (v:v = 40:60) a.w. = 0.91, 25° C.)?
**A.** The XRPD after equilibration was “Form P”.

**Q.** And the XRPD after equilibration ([3]; Ethyl acetate, 25° C.)?
**A.** Its XRPD after equilibration is “Form P”.

**Q.** And the XRPD after equilibration ([3]; Isopropyl acetate, 25° C.)?
**A.** Its XRPD after equilibration is “Form P”.

**Q.** What about the XRPD after equilibration ([3]; MEK, 25° C.) of the same compound?
**A.** The XRPD after equilibration was “Form P”.

**Q.** What about the XRPD after equilibration ([3]; MTBE, 25° C.) of the same compound?
**A.** The XRPD after equilibration was “Form P”.

**Q.** And the XRPD after equilibration ([3]; Methanol, 25° C.)?
**A.** Its XRPD after equilibration is “Form B”.

**Q.** What about the XRPD after equilibration ([3]; THF, 25° C.) of the same compound?
**A.** Its XRPD after equilibration is “Form I”.

**Q.** And the XRPD after equilibration ([3]; Toluene, 25° C.)?
**A.** Its XRPD after equilibration is “Form C”.

**Q.** What about the XRPD after equilibration ([3]; heptane, 25° C.) of the same compound?
**A.** The XRPD after equilibration was “Form C”.

**Q.** What about the XRPD after equilibration ([3]; pH 1.2 HCl/KCl buffer, 25° C.) of the same compound?
**A.** Its XRPD after equilibration is “Form P”.

**Q.** And the XRPD after equilibration ([3]; water, 25° C.)?
**A.** Its XRPD after equilibration is “Form P”.

**Q.** And the “Form after humidity exposure” value ([4]; exposure to high humidity)?
**A.** Its value is “crystallized to Form N”.

**Q.** With `Cc1nc(-c2c[nH]c3c(C#N)cccc23)cnc1OCC(C)(C)O` [Form C, 3-(5-(2-hydroxy-2-methylpropoxy)-6-methylpyrazin-2-yl)-1H-indole-7-carbonitrile] as the compound, how does the “Relative stability in water activity experiments” value [5] read?
**A.** The value was “stable”.

**Q.** What about the “Comments (crystallinity)” value ([6]; granulation solvent Ethanol) of the same compound?
**A.** The value was “Crystallinity decreased”.

**Q.** And the XRPD ([6]; granulation solvent Ethanol)?
**A.** Its XRPD is “Form C”.

**Q.** What about the “Comments (crystallinity)” value ([6]; granulation solvent Water) of the same compound?
**A.** The value was “Crystallinity decreased slightly”.

**Q.** And the XRPD ([6]; granulation solvent Water)?
**A.** The XRPD was “Form C”.

**Q.** And the “Time to conversion to Form P” value ([7]; 2-MeTHF, 25° C.)?
**A.** The value was no more than 2 h.

**Q.** What about the “Time to complete conversion to Form P” value ([7]; heptane, 25° C.) of the same compound?
**A.** The value was 1 week.

**Q.** What about the “Time to conversion to Form P” value ([7]; pH 1.2 HCl buffer, 37° C.) of the same compound?
**A.** The value was 31 h.

**Q.** What about the “Time to complete conversion to Form P” value ([7]; water, 25° C.) of the same compound?
**A.** The value was 4 days.

**Q.** And the “Comments (crystallinity)” value [8]?
**A.** Its value is “Crystallinity decreased slightly”.

**Q.** What about the XRPD [8] of the same compound?
**A.** Its XRPD is “Form C”.

**Q.** Which results are given for `Cc1nc(-c2c[nH]c3c(C#N)cccc23)cnc1OCC(C)(C)O` [Form K, 3-(5-(2-hydroxy-2-methylpropoxy)-6-methylpyrazin-2-yl)-1H-indole-7-carbonitrile]?
**A.** Form after melting and re-crystallization [9]: converts to Form L; Form after humidity exposure ([4]; 25° C./92% RH for 6 days): reverts back to Form B; also recorded: converts to hydrate Form B

**Q.** With `Cc1nc(-c2c[nH]c3c(C#N)cccc23)cnc1OCC(C)(C)O` [Form V, 3-(5-(2-hydroxy-2-methylpropoxy)-6-methylpyrazin-2-yl)-1H-indole-7-carbonitrile] as the compound, how does the “Time to conversion to Form W” value ([4]; ambient condition (20° C.-27° C., 50% RH-70% RH)) read?
**A.** The value was no more than 12 h.
